US20050164259A1, “Sequences” (priority 2001, published 2005)

Columns and labels:
[1] = molecular target: T1, pyranosone dehydratase (PD) (Phanerodontia chrysosporium, UniProt P84193); assay: Conversion of AF or glucosone by pyranosone dehydratase, monitored at 226 nm; assay type: biochemical, Phanerochaete chrysosporium; conditions: for OD 226 nm using substance as substrate: 22° C., 5.5 hours
T1 construct: The cell-free extract of Phanerochaete crysosporium was brought up to 55% ammonium sulphate saturation; endogenous in cells; host or cells: Phanerochaete chrysosporium ATCC 32629 and ATCC 24725; Native enzyme purified from cell-free extract by ammonium sulphate fractionation, then the procedure of Gabriel et al. 1993
T1 sequence (P84193 8-900 limits assumed): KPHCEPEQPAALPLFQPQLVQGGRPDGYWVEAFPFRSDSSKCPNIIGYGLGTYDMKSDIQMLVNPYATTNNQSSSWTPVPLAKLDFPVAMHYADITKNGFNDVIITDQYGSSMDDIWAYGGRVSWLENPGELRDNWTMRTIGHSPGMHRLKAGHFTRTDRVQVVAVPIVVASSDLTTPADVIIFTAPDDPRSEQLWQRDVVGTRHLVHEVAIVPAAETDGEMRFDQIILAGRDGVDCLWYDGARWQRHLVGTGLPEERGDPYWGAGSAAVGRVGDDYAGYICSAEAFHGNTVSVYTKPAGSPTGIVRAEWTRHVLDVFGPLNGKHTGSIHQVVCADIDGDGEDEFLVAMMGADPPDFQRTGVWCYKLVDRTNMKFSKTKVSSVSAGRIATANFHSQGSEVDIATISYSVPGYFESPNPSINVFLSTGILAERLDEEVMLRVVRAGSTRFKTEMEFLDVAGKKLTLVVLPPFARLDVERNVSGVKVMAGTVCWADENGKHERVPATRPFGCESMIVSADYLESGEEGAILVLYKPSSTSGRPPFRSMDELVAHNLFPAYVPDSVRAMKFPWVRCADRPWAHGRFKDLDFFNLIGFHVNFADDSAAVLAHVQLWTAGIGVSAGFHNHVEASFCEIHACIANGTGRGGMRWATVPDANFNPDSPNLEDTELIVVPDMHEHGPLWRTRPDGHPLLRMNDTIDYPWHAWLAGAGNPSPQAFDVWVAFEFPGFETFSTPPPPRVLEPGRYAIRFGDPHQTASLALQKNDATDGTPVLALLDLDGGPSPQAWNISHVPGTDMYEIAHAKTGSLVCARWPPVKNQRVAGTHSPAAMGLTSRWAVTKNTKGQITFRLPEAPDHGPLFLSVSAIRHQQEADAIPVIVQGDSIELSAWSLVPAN

Aphanomyces = assay: Field emergence trial FEHCPO34 Aphanomyces, pelleted sugar beet seeds; assay type: in vivo; conditions: pellets containing the substance; in words
From the text: Based on these findings, the efficiency of microthecin was further investigated in a field emergence trial. The trial was sown relatively late giving it a higher chance for presence of the pathogen Aphanomyces in the trial field.
(§1) Seeds were pelleted with standard P1 pelleting mass with (1,2) or without (7,8)Thiram.
(§2) Inner coating: 0.3 gai/U microthecin as a 0.5% solution in water or • 14.7 gai/U Hymexazol. • 60 gai/U Imidacloprid.
(§3) Standard metallic green seed cover film.
Trial place Bukkehave, D K. (4 reps, 200 seeds/plot)

sugar beet seeds = assay: Laboratory germination of pelleted sugar beet seeds; assay type: in vivo; conditions: in words
From the text: as §1, §2, §3

Aphanomyces cochlioides [2] = assay: Example 4 screening for growth inhibition on agar plates; assay type: cell-based; conditions: very low concentrations; wells on PDA-agar plates, 3-5 days
Protocol: The effect of microthecin on the plant pathogenic fungi Pythium ultimum, Rhizoctonia solani and Aphanomyces cochlioides in vitro was investigated by screening for growth inhibition of the pathogens on agar-plates (FIGS. 6, 7, 8).
(§4) In each case, microthecin was dissolved in water and placed in wells in the periphery. An agar block containing the pathogen was placed in the centre. The pathogens were allowed to grow out on the PDA-agar plates for 3-5 days.

[3] = test system: Pseudomonads (P. fluorescens DS96.578, P. mendocina DS98.124); assay: Example 4 similar tests with other microorganisms; assay type: cell-based
Protocol: as §4

[4] = test system: Bacillus (B. Pumilus DS96.734, B. megaterium DS98.124); assay: Example 4 similar tests with other microorganisms; assay type: cell-based
Protocol: as §4

Pythium ultimum = assay: Agar plate inhibition zone test (PDA), microthecin solutions; assay type: cell-based; conditions: judged after 1-2 days of growth
Protocol: (§5) Basic microthecin solution: 24 mg/ml Batch no. Mic20011016
(§6) All solutions were filtered through a 0.22 μm filter for sterilisation.
(§7) A circular plug (diameter 10 mm) of fresh mycelium was placed at the centre on a petri-dish (diameter 9 cm) containing PDA medium. (PDA=Potato dextrose agar Difco no. 213400). Wells with a diameter of 5 mm were cut along the periphery of the agar plate. In each well were placed 50 μl of a test solution. Alternatively, 20 μl of each test solution were placed directly on the agar along the periphery of the plate. Also, 50 μl of each test solution were placed directly on top of the fungal mycelium plug.
(§8) The agar plates were placed at room temperature in daylight, but protected from direct sunlight.
(§9) The reaction (inhibition zones) of the fungi to the test substance was judged as follows: […]

Aphanomyces cochlioides [5] = assay: as above; assay type: cell-based; conditions: judged after 3-4 days of growth
Protocol: as §5, §6, §7, §8, §9

Cercospora beticola = assay: as above; assay type: cell-based; conditions: judged after 3-4 weeks of growth
Protocol: as §5, §6, §7, §8, §9

Rhizoctonia solani = assay: as above; assay type: cell-based; conditions: judged after 2-3 days of growth
Protocol: as §5, §6, §7, §8, §9

[6] = final substrate concentration 13.7 μg/ml reaction mixture
[7] = final substrate concentration 27.4 μg/ml reaction mixture
[8] = final substrate concentration 41.1 μg/ml reaction mixture
[9] = final substrate concentration 68.4 μg/ml reaction mixture
[10] = final substrate concentration 95.8 μg/ml reaction mixture
[11] = final substrate concentration 137 μg/ml reaction mixture
[12] = final substrate concentration 205 μg/ml reaction mixture

SMILES	Vmax with AF relative to glucosone ([1]; AF versus natural substrate glucosone)	OD 226 nm using substance as substrate [1, 6]	OD 226 nm using substance as substrate [1, 7]	OD 226 nm using substance as substrate [1, 8]	OD 226 nm using substance as substrate [1, 9]	OD 226 nm using substance as substrate [1, 10]	OD 226 nm using substance as substrate [1, 11]	OD 226 nm using substance as substrate [1, 12]	speed of germination in field emergence trials (Aphanomyces)	4d>15mm germination (sugar beet seeds)	final germination in field (Aphanomyces)	growth of Aphanomyces (Aphanomyces cochlioides [2])	speed of laboratory germination (4d) (sugar beet seeds; inclusion in pellets)	effect on Pseudomonads [3]	effect on the growth of Bacillus [4]	minimum inhibition concentration (mic) (Pythium ultimum)	minimum inhibition concentration (mic) (Aphanomyces cochlioides [5])	minimum inhibition concentration (mic) (Cercospora beticola)	minimum inhibition concentration (mic) (Rhizoctonia solani)
O=C1CO[C@H](CO)[C@@H](O)[C@@H]1O [AF, 1,5-anhydro-D-fructose]	around 4.7 times	0.308	0.534	0.76	1.246	1.764	2.43	2.943	–	–	–	–	–	–	–	–	–	–	–
O=CC(=O)[C@@H](O)[C@H](O)[C@H](O)CO [Glucosone, D-arabino-hexos-2-ulose]	–	0.069	0.104	0.141	0.238	0.323	0.484	0.634	–	–	–	–	–	–	–	–	–	–	–
Cc1cc(O)no1 [Hymexazol]	–	–	–	–	–	–	–	–	germinate relatively slow	low 4d>15mm germination	–	–	–	–	–	–	–	–	–
O=C1C=CCOC1(O)CO (stereo not drawn) [microthecin]	–	–	–	–	–	–	–	–	comparable with pellets only containing Thiram	–	high final germination	able to reduce the growth	decreases the speed of laboratory germination	slightly affected	no effect	480 ppm	1200 ppm	2400 ppm	240 ppm
